Reference: ChEMBL document CHEMBL1141965, “Preparation of human Melanocortin-4 receptor agonist libraries: linear peptides X-Y-DPhe7-Arg8-Trp(or 2-Nal)9-Z-NH2” (Bioorg Med Chem Lett, 2005)
Non-standard residues stand in square brackets, D forms with d. Residues, ends and D or L forms follow the SMILES beside them. ξ: configuration not given here. *: point of attachment. Ac6c(4-Ph-cis-to-N) = N[C@]1(C(=O)O)CC[C@H](c2ccccc2)CC1; ξAtc(5-Br) = NC1(C(=O)O)CCc2c(Br)cccc2C1; Pentanoyl = CCCCC(=O)*

Assays:
[1] = target: T1, Melanocyte-stimulating hormone receptor (Homo sapiens, UniProt Q01726); experiment: Agonist activity at human MC1R at 50 uM; assay type: functional
Target sequence in this assay (Q01726 whole entry, looked up): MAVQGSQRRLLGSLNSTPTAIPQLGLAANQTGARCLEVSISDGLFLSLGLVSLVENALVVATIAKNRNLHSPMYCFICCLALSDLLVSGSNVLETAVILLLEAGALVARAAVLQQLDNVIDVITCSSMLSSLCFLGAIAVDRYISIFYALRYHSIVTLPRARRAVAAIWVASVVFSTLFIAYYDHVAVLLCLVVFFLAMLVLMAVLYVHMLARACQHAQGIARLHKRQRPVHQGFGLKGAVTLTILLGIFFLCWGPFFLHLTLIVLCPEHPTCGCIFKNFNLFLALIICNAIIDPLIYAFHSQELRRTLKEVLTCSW

Melanocortin receptor 4 [2] = target: T2, Melanocortin receptor 4 (Homo sapiens, UniProt P32245); experiment: Agonist activity in HEK293 cells transfected with human MC4R by cAMP accumulation; assay type: functional, cell-based
[3] = target: T1, Melanocyte-stimulating hormone receptor; experiment: Agonist activity at human MC1R at 10 uM; assay type: functional
Target sequence in this assay (Q01726 whole entry, looked up): as above

Melanocortin receptor 4 [4] = target: T2, Melanocortin receptor 4; experiment: Agonist activity at human MC4R at 100 nM; assay type: functional
[5] = target: T1, Melanocyte-stimulating hormone receptor; experiment: Agonist activity in HEK293 cells transfected with human MC1R by cAMP accumulation; assay type: functional, cell-based
Target sequence in this assay (Q01726 whole entry): as the sequence (Q01726 whole entry, looked up) above

[6] = target: T1, Melanocyte-stimulating hormone receptor; experiment: Agonist activity at human MC1R at 100 nM; assay type: functional
Target sequence in this assay (Q01726 whole entry, looked up): as above

T2 sequence (P32245 whole entry): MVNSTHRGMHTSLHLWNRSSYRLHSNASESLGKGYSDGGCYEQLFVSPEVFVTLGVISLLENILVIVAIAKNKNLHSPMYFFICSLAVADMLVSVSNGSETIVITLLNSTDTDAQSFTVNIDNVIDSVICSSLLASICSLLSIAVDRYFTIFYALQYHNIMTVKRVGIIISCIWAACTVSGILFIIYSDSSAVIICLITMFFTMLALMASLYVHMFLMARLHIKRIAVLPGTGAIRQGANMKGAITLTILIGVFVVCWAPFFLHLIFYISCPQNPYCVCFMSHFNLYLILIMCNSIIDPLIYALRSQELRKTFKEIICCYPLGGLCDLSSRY

EC50 (Melanocortin receptor 4 [2]) [nM]	Activity [3] [%]	SMILES	further results
15	–	CCCC(=O)NC1(C(=O)N[C@H](Cc2ccccc2)C(=O)N[C@@H](CCCN=C(N)N)C(=O)N[C@@H](Cc2c[nH]c3ccccc23)C(=O)Nc2ccccc2C(N)=O)CCc2c(Br)cccc2C1 (some centres undefined)	Activity [1]: 65%
11	50	N=C(N)NCCC[C@H](NC(=O)[C@@H](Cc1ccccc1)NC(=O)C1(NC(=O)Cc2ccccc2)CCc2c(Br)cccc2C1)C(=O)N[C@@H](Cc1c[nH]c2ccccc12)C(=O)Nc1ccccc1C(N)=O (some centres undefined)	–
5	–	CCCC(=O)N[C@]1(C(=O)N[C@H](Cc2ccccc2)C(=O)N[C@@H](CCCN=C(N)N)C(=O)N[C@@H](Cc2c[nH]c3ccccc23)C(=O)NCCC(N)=O)CC[C@H](c2ccccc2)CC1	Activity [1]: 50%
–	25	CCCC(=O)N[C@]1(C(=O)N[C@H](Cc2ccccc2)C(=O)N[C@@H](CCCN=C(N)N)C(=O)NC(Cc2ccc3ccccc3c2)C(=O)NCCC(N)=O)CC[C@H](c2ccccc2)CC1 (some centres undefined)	Activity (Melanocortin receptor 4 [4]): > 30%
2	–	CCCCNC(=O)N[C@]1(C(=O)N[C@H](Cc2ccccc2)C(=O)N[C@@H](CCCN=C(N)N)C(=O)N[C@@H](Cc2c[nH]c3ccccc23)C(=O)NCCC(N)=O)CC[C@H](c2ccccc2)CC1	Activity [1]: 50%
110	–	CCCC(=O)N[C@]1(C(=O)N[C@H](Cc2ccccc2)C(=O)N[C@@H](CCCN=C(N)N)C(=O)N[C@@H](Cc2ccc3ccccc3c2)C(=O)NCc2cccc(C(N)=O)c2)CC[C@H](c2ccccc2)CC1	–
2	60	CCCCNC(=O)N[C@]1(C(=O)N[C@H](Cc2ccccc2)C(=O)N[C@@H](CCCN=C(N)N)C(=O)N[C@@H](Cc2c[nH]c3ccccc23)C(=O)NCc2cccc(C(N)=O)c2)CC[C@H](c2ccccc2)CC1	–
2	60	N=C(N)NCCC[C@H](NC(=O)[C@@H](Cc1ccccc1)NC(=O)[C@]1(NC(=O)Cc2ccccc2)CC[C@@H](c2ccccc2)CC1)C(=O)N[C@@H](Cc1c[nH]c2ccccc12)C(=O)NCc1cccc(C(N)=O)c1	–
2	–	CCCCNC(=O)N[C@]1(C(=O)N[C@H](Cc2ccccc2)C(=O)N[C@@H](CCCN=C(N)N)C(=O)N[C@@H](Cc2c[nH]c3ccccc23)C(=O)N[C@@H](C)C(N)=O)CC[C@H](c2ccccc2)CC1	Activity [1]: 25%
1	70	N=C(N)NCCC[C@H](NC(=O)[C@@H](Cc1ccccc1)NC(=O)[C@]1(NC(=O)Cc2ccccc2)CC[C@@H](c2ccccc2)CC1)C(=O)N[C@@H](Cc1c[nH]c2ccccc12)C(=O)NCc1ccc(C(N)=O)cc1	–
50	–	CCCCC(=O)N[C@]1(C(=O)N[C@H](Cc2ccccc2)C(=O)N[C@@H](CCCN=C(N)N)C(=O)N[C@@H](Cc2ccc3ccccc3c2)C(=O)NCC(N)=O)CC[C@H](c2ccccc2)CC1	–
2	75	CCCCNC(=O)N[C@]1(C(=O)N[C@H](Cc2ccccc2)C(=O)N[C@@H](CCCN=C(N)N)C(=O)N[C@@H](Cc2c[nH]c3ccccc23)C(=O)Nc2ccccc2C(N)=O)CC[C@H](c2ccccc2)CC1	–

Further lines, the compound ahead of its results:

SMILES	EC50 (Melanocortin receptor 4 [2]) [nM]	Activity [3] [%]	further results
CCCCC(=O)N[C@]1(C(=O)N[C@H](Cc2ccccc2)C(=O)N[C@@H](CCCN=C(N)N)C(=O)N[C@@H](Cc2c[nH]c3ccccc23)C(=O)NCC(N)=O)CC[C@H](c2ccccc2)CC1 (Pentanoyl-[Ac6c(4-Ph-cis-to-N)][dF]RWG-NH2)	–	–	Activity [1]: 25%
N=C(N)NCCC[C@H](NC(=O)[C@@H](Cc1ccccc1)NC(=O)[C@]1(NC(=O)Cc2ccccc2)CC[C@@H](c2ccccc2)CC1)C(=O)N[C@@H](Cc1c[nH]c2ccccc12)C(=O)Nc1ccccc1C(N)=O	3	75	–
CCCCNC(=O)NC1(C(=O)N[C@H](Cc2ccccc2)C(=O)N[C@@H](CCCN=C(N)N)C(=O)N[C@@H](Cc2c[nH]c3ccccc23)C(=O)Nc2ccccc2C(N)=O)CCc2c(Br)cccc2C1 (some centres undefined)	15	50	–
CCCC(=O)N[C@]1(C(=O)N[C@H](Cc2ccccc2)C(=O)N[C@@H](CCCN=C(N)N)C(=O)N[C@@H](Cc2c[nH]c3ccccc23)C(=O)N[C@@H](C)C(N)=O)CC[C@H](c2ccccc2)CC1	3	–	Activity [1]: 25%
CCCC(=O)N[C@]1(C(=O)N[C@H](Cc2ccccc2)C(=O)N[C@@H](CCCN=C(N)N)C(=O)NC(Cc2ccc3ccccc3c2)C(=O)NCc2ccc(C(N)=O)cc2)CC[C@H](c2ccccc2)CC1 (some centres undefined)	–	–	Activity (Melanocortin receptor 4 [4]): > 30%; Activity [1]: 15%
CCCC(=O)N[C@]1(C(=O)N[C@H](Cc2ccccc2)C(=O)N[C@@H](CCCN=C(N)N)C(=O)N[C@@H](Cc2ccc3ccccc3c2)C(=O)NCCC(N)=O)CC[C@H](c2ccccc2)CC1	90	–	–
CCCC(=O)NC1(C(=O)N[C@H](Cc2ccccc2)C(=O)N[C@@H](CCCN=C(N)N)C(=O)NC(Cc2ccc3ccccc3c2)C(=O)Nc2ccccc2C(N)=O)CCc2c(Br)cccc2C1 (some centres undefined)	–	–	Activity (Melanocortin receptor 4 [4]): > 30%; Activity [1]: 60%
CCCCC(=O)NC1(C(=O)N[C@H](Cc2ccccc2)C(=O)N[C@@H](CCCN=C(N)N)C(=O)N[C@@H](Cc2ccc3ccccc3c2)C(=O)NCC(N)=O)CCc2c(Br)cccc2C1 (some centres undefined)	200	–	EC50 [5]: 2900 nM
CCCC(=O)N[C@]1(C(=O)N[C@H](Cc2ccccc2)C(=O)N[C@@H](CCCN=C(N)N)C(=O)N[C@@H](Cc2c[nH]c3ccccc23)C(=O)NCc2ccc(C(N)=O)cc2)CC[C@H](c2ccccc2)CC1	1	50	–
CCCC(=O)NC1(C(=O)N[C@H](Cc2ccccc2)C(=O)N[C@@H](CCCN=C(N)N)C(=O)NC(Cc2ccc3ccccc3c2)C(=O)NCCC(N)=O)CCc2c(Br)cccc2C1 (some centres undefined)	–	–	Activity (Melanocortin receptor 4 [4]): 32%; Activity [6]: 40%
CCCC(=O)N[C@]1(C(=O)N[C@H](Cc2ccccc2)C(=O)N[C@@H](CCCN=C(N)N)C(=O)N[C@@H](Cc2ccc3ccccc3c2)C(=O)NCC(N)=O)CC[C@H](c2ccccc2)CC1	44	25	Activity (Melanocortin receptor 4 [4]): > 30%
CCCC(=O)N[C@]1(C(=O)N[C@H](Cc2ccccc2)C(=O)N[C@@H](CCCN=C(N)N)C(=O)NC(Cc2ccc3ccccc3c2)C(=O)NCc2cccc(C(N)=O)c2)CC[C@H](c2ccccc2)CC1 (some centres undefined)	–	25	Activity (Melanocortin receptor 4 [4]): > 30%
CCCC(=O)N[C@]1(C(=O)N[C@H](Cc2ccccc2)C(=O)N[C@@H](CCCN=C(N)N)C(=O)NC(Cc2ccc3ccccc3c2)C(=O)N[C@@H](C)C(N)=O)CC[C@H](c2ccccc2)CC1 (some centres undefined)	–	25	Activity (Melanocortin receptor 4 [4]): > 30%; EC50 (Melanocortin receptor 4 [2]; hek293): 220 nM
CCCC(=O)N[C@]1(C(=O)N[C@H](Cc2ccccc2)C(=O)N[C@@H](CCCN=C(N)N)C(=O)N[C@@H](Cc2c[nH]c3ccccc23)C(=O)NCc2cccc(C(N)=O)c2)CC[C@H](c2ccccc2)CC1	2	–	Activity [1]: 50%
CCCC(=O)N[C@]1(C(=O)N[C@H](Cc2ccccc2)C(=O)N[C@@H](CCCN=C(N)N)C(=O)N[C@@H](Cc2ccc3ccccc3c2)C(=O)Nc2ccccc2C(N)=O)CC[C@H](c2ccccc2)CC1	39	–	–
CCCCC(=O)N[C@]1(C(=O)N[C@H](Cc2ccccc2)C(=O)N[C@@H](CCCN=C(N)N)C(=O)NC(Cc2ccc3ccccc3c2)C(=O)NCC(N)=O)CC[C@H](c2ccccc2)CC1 (some centres undefined)	–	–	Activity [1]: 60%
C[C@H](NC(=O)[C@H](Cc1c[nH]c2ccccc12)NC(=O)[C@H](CCCN=C(N)N)NC(=O)[C@@H](Cc1ccccc1)NC(=O)[C@]1(NC(=O)Cc2ccccc2)CC[C@@H](c2ccccc2)CC1)C(N)=O	3	30	–
CCCC(=O)NC1(C(=O)N[C@H](Cc2ccccc2)C(=O)N[C@@H](CCCN=C(N)N)C(=O)NC(Cc2ccc3ccccc3c2)C(=O)NCC(N)=O)CCc2c(Br)cccc2C1 (some centres undefined)	–	–	Activity (Melanocortin receptor 4 [4]): 30%; Activity [6]: 26%
NC(=O)CCNC(=O)[C@H](Cc1c[nH]c2ccccc12)NC(=O)[C@H](CCCN=C(N)N)NC(=O)[C@@H](Cc1ccccc1)NC(=O)[C@]1(NC(=O)Cc2ccccc2)CC[C@@H](c2ccccc2)CC1	5	45	–
CCCCC(=O)NC1(C(=O)N[C@H](Cc2ccccc2)C(=O)N[C@@H](CCCN=C(N)N)C(=O)N[C@@H](Cc2c[nH]c3ccccc23)C(=O)NCC(N)=O)CCc2c(Br)cccc2C1 (some centres undefined) (Pentanoyl-[ξAtc(5-Br)][dF]RWG-NH2)	–	–	Activity [1]: 50%
CCCC(=O)N[C@]1(C(=O)N[C@H](Cc2ccccc2)C(=O)N[C@@H](CCCN=C(N)N)C(=O)NC(Cc2ccc3ccccc3c2)C(=O)Nc2ccccc2C(N)=O)CC[C@H](c2ccccc2)CC1 (some centres undefined)	–	50	Activity (Melanocortin receptor 4 [4]): > 30%
CCCCNC(=O)N[C@]1(C(=O)N[C@H](Cc2ccccc2)C(=O)N[C@@H](CCCN=C(N)N)C(=O)N[C@@H](Cc2c[nH]c3ccccc23)C(=O)NCC(N)=O)CC[C@H](c2ccccc2)CC1	2	55	–
CCCC(=O)N[C@]1(C(=O)N[C@H](Cc2ccccc2)C(=O)N[C@@H](CCCN=C(N)N)C(=O)N[C@@H](Cc2c[nH]c3ccccc23)C(=O)Nc2ccccc2C(N)=O)CC[C@H](c2ccccc2)CC1	2	60	–
CCCC(=O)NC1(C(=O)N[C@H](Cc2ccccc2)C(=O)N[C@@H](CCCN=C(N)N)C(=O)N[C@@H](Cc2ccc3ccccc3c2)C(=O)Nc2ccccc2C(N)=O)CCc2c(Br)cccc2C1 (some centres undefined)	72	–	–
NC(=O)CNC(=O)[C@H](Cc1c[nH]c2ccccc12)NC(=O)[C@H](CCCN=C(N)N)NC(=O)[C@@H](Cc1ccccc1)NC(=O)[C@]1(NC(=O)Cc2ccccc2)CC[C@@H](c2ccccc2)CC1	2	30	–
CCCC(=O)N[C@]1(C(=O)N[C@H](Cc2ccccc2)C(=O)N[C@@H](CCCN=C(N)N)C(=O)N[C@@H](Cc2ccc3ccccc3c2)C(=O)NCc2ccc(C(N)=O)cc2)CC[C@H](c2ccccc2)CC1	85	–	–
